Usually EC50 stands for the midpoint of the concentration-response curve. The IC50 is the midpoint of a concentration-inhibition curve. Read a high IC50 as a need for much substance.

The record followed here is PubChem BioAssay AID179 (DTP/NCI, 2004).

The test system of this assay is CEM cells HIV-1 protection, formazan growth assay. Briefly: NCI AIDS Antiviral Assay. To be noted: for IC50: measured here: growth of uninfected CEM cells. The essentials:
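Human CEM cells, uninfected and HIV-1-infected, exposed to five drug concentrations; growth measured by soluble formazan assay and scored as percent protection from infection, with protecting compounds retested.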

Each structure is given as a SMILES string. Values joined by “and” are separate entries in the source; they are usually repeats but may differ in a detail not shown here. Equal entries are not always repeated. Active and inactive are the calls of the source.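 The calls were made as follows: active = compounds giving half or more protection of infected cells from virus-caused growth loss, again on retest; inactive = the rest.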 Where a SMILES comes first, the peptide text is derived from it. [ ]: non-standard residue; d: D form. The star is where a group is joined. Cbz = O=C(OCc1ccccc1)*; Boc = CC(C)(C)OC(=O)*; Aib = CC(C)(N)C(=O)O; OBn = c1ccc(CO*)cc1; OtBu = CC(C)(C)O*; βAla = NCCC(=O)O Where only a bound is given, the exact number is not on record here.

With `COC(=O)c1c(C)cccc1C1CN=NC12Cc1ccc(C)cc1C2=O` (configuration not stated), the half-maximal effective concentration (EC50) was over 72.4 µM and the IC50 is 41.7 µM.
`CN(C)CC/C(=N\Nc1ccc(Cl)cc1)c1ccccc1`: the result was inactive.
For the molecule `O=C1/C(=C/c2cccc3ccccc23)Cc2ccccc21`, the EC50 was over 200 µM and the half-maximal inhibitory concentration (IC50) worked out at 97.7 µM.
Taken in the same sequence, the figures for `COC(=O)c1c(C)cc(C)cc1OC` were over 200 µM and 151 µM.
With `Clc1ccc(C2C3COc4ccccc4C3=NN2c2ccccc2)cc1` (configuration not stated), the EC50 was over 151 µM and the IC50 was determined as 1.95 µM.
As for `C=C(c1ccccc1)[C@@]1(O)CC[C@@H]1N(CC#N)Cc1ccccc1`, the result was inactive.
As to `O=S(=O)(SC1=NCCN1)c1cccc2ccccc12`, the EC50 was over 81.3 µM and the half-inhibitory concentration (IC50) came out at 37.2 µM.
Taken in the same sequence, the figures for `O=C1CC2CCC(C1)S2=O` (configuration not stated) were over 200 µM and over 200 µM.
The corresponding values for `CN(/N=C/C=N/N(C)C1=NCCCCN1)C1=NCCCCN1` are over 200 µM and over 200 µM.
Taken in the same sequence, the figures for `Cc1ccc(NC(=O)CCC(=O)C2CC(=O)CCC2=O)cc1C` (configuration not stated) were over 794 µM and over 794 µM.
`C=CCN1C(=O)CS/C1=N\NC(=O)c1c(C)nc2sccn12`: the EC50 is over 741 µM and the half-maximal inhibitory concentration (IC50) was determined as 240 µM.
On to `O=C(CC1(O)C(=O)Nc2c(Cl)cc(Cl)cc21)c1ccco1` (configuration not stated), for which the EC50 was over 398 µM and the concentration for half-maximal inhibition (IC50) worked out at 83.2 µM.
Consider `Cc1cn(C2CC3C(COCN3O)O2)c(=O)[nH]c1=O` (configuration not stated), for which the EC50 is over 200 µM and the IC50 is 166 µM.
The corresponding values for `COC(=O)c1cc(C(c2cc(C(=O)OC)c(O)cc2C)C(Cl)(Cl)Cl)c(C)cc1O` are over 200 µM and 5.75 µM.
As to `Cn1c(SSc2ccc(-c3cccnc3)n2C)ccc1-c1cccnc1`, the EC50 is over 200 µM; the 50% inhibitory concentration (IC50) is 1.86 µM and 2.45 µM.
Regarding `C=C(C)[C@@]1(O)CCC[C@H]1NC(=O)OC(C)(C)C`, the EC50 was over 200 µM and the concentration for half-maximal inhibition (IC50) was over 200 µM.
Take `CC(C)/C(Cl)=N\OC(=O)Nc1ccc(F)cc1F`: the EC50 is over 200 µM and the IC50 was found to be 7.24 µM.
For the molecule `Cc1cccc(-c2cc(=O)c3cc(C)c(C)c(C(=O)O)c3o2)c1`, the result was inactive.
For `c1ccc(-n2cnnc2-c2nsc3ccccc23)cc1`, the EC50 was over 93.3 µM and the IC50 is over 93.3 µM.
Take `OC1(O)/C=C\CCCCC/C=C\1`: the EC50 was over 200 µM and the IC50 was determined as 129 µM.
As for `COc1cc2cc3c4cc(OC)c(OC)cc4cc[n+]3c(C)c2cc1OC` (tested in a mixture with another compound), the EC50 was over 93.3 µM and the IC50 amounted to 4.17 µM.
Turning to `CCNC(=O)C1CCCN1C(=O)C(CCCN=C(N)N)NC(=O)C(CC(C)C)NC(=O)C(Cc1c[nH]c2ccccc12)NC(=O)C(Cc1ccc(O)cc1)NC(=O)C(CO)NC(=O)C(Cc1c[nH]c2ccccc12)NC(=O)C(Cc1cnc[nH]1)NC(=O)C1CCC(=O)N1` (configuration not stated), the EC50 is over 178 µM and the half-inhibitory concentration (IC50) is over 178 µM.
With `Oc1cccc2cccnc12`, the EC50 was over 1230 µM, the result was inactive and the IC50 came to 2.34 µM.
Consider `N#CC1CC(c2ccccc2)Nc2cc(Cl)ccc2N1` (configuration not stated), for which the EC50 is over 47.9 µM and the half-maximal inhibitory concentration (IC50) stood at 6.92 µM.
`Cc1cn(C(Cc2ccccc2)OCC[Se]c2ccccc2)c(=O)[nH]c1=O` (configuration not stated): the EC50 was 100 µM and the half-inhibitory concentration (IC50) is over 200 µM.
With `CC(C)(C)c1cc2c(O)c(c1)C(c1ccccc1)c1cc(C(C)(C)C)cc(c1O)Cc1cc(C(C)(C)C)cc(c1O)C(c1ccccc1)c1cc(C(C)(C)C)cc(c1O)C2` (configuration not stated), the EC50 is over 50.1 µM and the IC50 is over 50.1 µM.
For the molecule `C=C1C(OC(=O)c2ccccc2)C2[C@@H](OC(=O)CC)[C@@H](C)C[C@]2(O)C(=O)[C@@H](C)/C=C/C(C)(C)C(=O)C(O)[C@H]1OC(=O)C(C)C` (some centres not stated), the result was inactive.
As to `CCC/C(Cl)=N\OC(=O)Nc1ccc(F)c([N+](=O)[O-])c1`, the EC50 was over 200 µM and the IC50 was determined as 9.12 µM.
As to `O=[N+]([O-])C1=C(c2ccccc2)SC=C(c2ccccc2)S1`, the EC50 is over 200 µM and the half-inhibitory concentration (IC50) was 9.77 µM.
The corresponding values for `O=C1NCCN1C(=O)Nc1ccc(S(=O)(=O)c2ccc([N+](=O)[O-])cc2)cc1` are over 200 µM and 74.1 µM.
Taken in the same sequence, the figures for `Cc1c2ccccc2nc(CS(C)(=O)=O)[n+]1[O-]` were over 200 µM and over 200 µM.
The corresponding values for `Cc1cccc(C(C)(C)C)c1NC(=O)CCc1nc(=S)[nH][nH]1` are over 562 µM and 240 µM.
Consider `[N-]=[N+]=NCN1C(=O)C2C3C=CC(C2C1=O)C1C2C(=O)N(CN=[N+]=[N-])C(=O)C2C31` (configuration not stated), for which the outcome was inactive.
In the case of `CC1=CC(=O)Nc2cncnc2N1`, the EC50 was over 77.6 µM and the IC50 is over 77.6 µM.
With `O=c1c2ccccc2oc2cc(C(O)c3ccccc3)ccc12` (configuration not stated), the EC50 is over 200 µM and the IC50 came out at 97.7 µM.
Taken in the same sequence, the figures for `Cc1cc(C)nc(NS(=O)(=O)c2ccc(Nc3c4ccccc4nc4c(C(=O)NNCCO)cccc34)cc2)n1` were over 200 µM and 33.1 µM.
Turning to `NS(=O)(=O)c1nnc(/N=C(/CCC(=O)O)C(=O)O)s1`, the EC50 is over 200 µM and the IC50 was over 200 µM.
In the case of `COc1ccc(-n2sc3ncc(-c4ccccc4)cc3c2=O)cc1`, the half-maximal effective concentration (EC50) is 7.08 µM and the IC50 amounted to 35.5 µM.
Regarding `CC(C)CCCC(C)C1CCC2C3CC(OC4OC(CO)C(O)C(O)C4O)C4C[C@@H](OS(=O)(=O)O)CC[C@]4(C)C3CC[C@]12C` (some centres not stated), the EC50 was over 37.2 µM and the IC50 was found to be 15.1 µM.
`CCOC(=O)c1sc2nc(-c3ccccc3)nn2c1CBr`: the EC50 is over 200 µM and the half-inhibitory concentration (IC50) was found to be 1.07 µM.
On to `CC(C)CC(NC(=O)C(Cc1ccc(O)cc1)NC(=O)C(C)N)C(=O)NCC(=O)NC(CCCCN)C(=O)NC(CCCCN)C(=O)NC(C(=O)NC(C)C(=O)NC(C(=O)NC(CC(N)=O)C(=O)O)C(C)O)C(C)C` (configuration not stated) (H-AYLGKKVATN-OH; configuration not given here), for which the outcome was inactive.
In the case of `Cc1nc2cc([N+](=O)[O-])ccc2c(NCCCN(C)C)c1C`, the EC50 was over 200 µM and the IC50 was determined as 3.55 µM.
The corresponding values for `CCO[C@@H]1OC(=O)[C@H]2C(c3ccc(Cl)cc3)=NO[C@@H]12` are over 35.5 µM and over 35.5 µM.
Taken in the same sequence, the figures for `Clc1cc2nsnc2c(Cl)n1` were over 457 µM and 2.75 µM.
For `CC(=O)OCCOCn1c2c(c(=S)[nH]c1=O)CCC2`, the EC50 is over 200 µM and the 50% inhibitory concentration (IC50) is over 200 µM.
For the molecule `Cc1cc(C)c(C)c(C(=O)OCC(C)(C)C)c1C`, the EC50 is over 200 µM and the IC50 is 110 µM.
The corresponding values for `Cc1c(COC(=O)NC(C)C)c(COC(=O)NC(C)C)c2n1CSC2` are over 51.3 µM and 2.4 µM.
Taken in the same sequence, the figures for `NCCSc1nc2ccccc2c(=O)n1-c1ccccc1` were over 200 µM and 30.2 µM.
Taken in the same sequence, the figures for `CC(C)(C)OC(=O)CC(NC(=O)OC(C)(C)C)C(=O)NC(CCCCNC(=O)OCc1ccccc1)C(=O)NC(C)(C)C(=O)NCCC(=O)OCc1ccccc1` (configuration not stated) (Boc-D(OtBu)K(Cbz)[Aib][βAla]-OBn; configuration not given here) were over 100 µM and over 100 µM.
In the case of `CCCCN1C(=O)C2c3[nH]c4ccccc4c3C3CCCCC3C2C1=O` (mixture of isomers), the result was inactive.
Still for that read-out and setting: next, `CC1Oc2c(c(O)cc3oc(=O)cc(-c4ccccc4)c23)C(=O)C1C` (configuration not stated): “inactive”.
As for `CN1CCN(c2n[nH]c(=O)c3c2nnn3Cc2ccccc2)CC1`, the EC50 was over 200 µM and the IC50 is over 200 µM.
With `O=C1OC(c2cccc3ccccc23)c2ccccc21` (configuration not stated), the concentration for a half-maximal effect (EC50) was over 501 µM and the 50% inhibitory concentration (IC50) was 26.3 µM.
The corresponding values for `CC1=CC(C)(C)SC(SSSC2=NC(C)=CC(C)(C)S2)=N1` are over 200 µM and 38.9 µM.
The corresponding values for `CC1=C(C)C2(C#N)C(=O)N3C(=NC(c4ccco4)NC3c3ccco3)C2(C#N)C(c2ccco2)N1` (configuration not stated) are over 200 µM and over 200 µM.
The corresponding values for `O=C1C2=C(c3ccccc31)C(c1ccc([N+](=O)[O-])cc1)NC(=S)N2` (configuration not stated) are over 138 µM and 28.2 µM.
In the case of `CCOC(=O)CCC(NC(=O)c1ccc(OCc2ccc3nc(OC)c(OC)nc3c2)cc1)C(=O)OCC` (configuration not stated), the EC50 is over 200 µM and the IC50 turned out to be 41.7 µM.
As for `CN1C(=O)C2(C=CCC2)c2ccccc21` (configuration not stated), the EC50 is over 1260 µM and the IC50 is 81.3 µM.
Consider `CCOC(=O)/C(=C\c1ccoc1)P(=O)(OCC)OCC`, for which the EC50 is over 832 µM and the IC50 amounted to 30.9 µM.
The corresponding values for `Cc1cccc2c1c(=O)c1c(O)c3c(cc1n2C)OC(C)(C)C=C3` are over 200 µM and 87.1 µM.
The corresponding values for `CCOC(=O)C(=O)Nc1c(CC)cccc1C(C)CC` (configuration not stated) are over 646 µM and over 646 µM.
Turning to `Cc1cc(=O)oc2c3c(ccc12)OC(c1ccc(Br)cc1)CC3=O` (configuration not stated), the EC50 was over 200 µM and the IC50 is 46.8 µM.
Taken in the same sequence, the figures for `O=C(NN1C(=O)CSC1c1ccco1)c1ccncc1` (configuration not stated) were over 200 µM and over 200 µM.
The corresponding values for `O=c1ccc2ccccc2o1` are over 1700 µM and 1410 µM.
Taken in the same sequence, the figures for `Cc1cc2c(C(C)C)c(O)c(O)c(C=O)c2c(O)c1-c1c(C)cc2c(C(C)C)c(O)c(O)c(C=Nc3ccc(Cc4ccc(N)cc4)cc3)c2c1O` were 5.5 µM and 44.7 µM.
Turning to `OC(=Nc1cc(C(O)=Nc2cc(C(O)=Nc3cc(C(O)=Nc4ccc(C5=NCCN5)cc4)cc(C4=NCCN4)c3)cc(C3=NCCN3)c2)cc(C2=NCCN2)c1)c1ccc(C(O)=Nc2cc(C(O)=Nc3cc(C(O)=Nc4cc(C(O)=Nc5ccc(C6=NCCN6)cc5)cc(C5=NCCN5)c4)cc(C4=NCCN4)c3)cc(C3=NCCN3)c2)cc1`, the EC50 is 14.5 µM and the IC50 was over 100 µM.
Taken in the same sequence, the figures for `CS(=O)(=O)Nc1ccc2ccccc2c1` were over 200 µM and 158 µM.
